The text below walks through data of ChEMBL document CHEMBL1201862, “PubChem BioAssay data set” (2004).

Among the test systems are COLO 205; SK-MEL-5; U-251; OVCAR-8; KM12; SN12C; NCI-H226; Malme-3M; HCT-15; TK-10; OVCAR-5; M14; A549; HOP-92; K562.
Holding throughout (experiment): DTP human tumour cell line panel, 48 h

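Cultured in 96-well plates, cells were exposed to test compound for 48 hours across five concentrations. GI50 = concentration required for 50% inhibition of growth.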 Activity calls are given as the source filed them. Cut-off read from the data, not from the text of the source: active = GI50 up to about 1.1 µM and inactive = higher.

By GI50 is commonly meant the concentration at which growth is held to half of that of the control.

In the case of `CC(=O)OC1(C(C)=O)CC2(c3ccccc3)OC1(c1ccccc1)c1ccccc12` (stereo unspecified), the GI50 with COLO 205 is 7.67 µM (inactive); in the experiment with SK-MEL-5, 3.37 µM (inactive); in the experiment with U-251, 18.2 µM (inactive); in the experiment with OVCAR-8 it was 34.6 µM (inactive); in the experiment on KM12, 17.3 µM (inactive); in the experiment on SN12C, 35.6 µM (inactive). In addition, the GI50 is 5.98 µM (inactive) in the experiment on NCI-H226; 18.6 µM (inactive) in the experiment on Malme-3M; 6.38 µM with HCT-15; 17.6 µM (inactive) with TK-10; > 100 µM (inactive) in the experiment on OVCAR-5; 14.4 µM (inactive) with M14. The figures for the GI50 with A549 and in the experiment on HOP-92 were 25.3 µM (inactive) and 17.7 µM (inactive), respectively.
With `CC(C)c1cccc(C(C)C)c1/N=C(/N)C#N`, the GI50 in the experiment on COLO 205 was 40.6 µM (inactive); in the experiment with K562, 25.4 µM (inactive); in the experiment with SK-MEL-5 it was > 93.5 µM (inactive); in the experiment with U-251 it was 34 µM (inactive); with OVCAR-8, > 100 µM (inactive); in the experiment on KM12, > 56 µM (inactive). Further, the GI50 in the experiment with SN12C is > 100 µM (inactive); in the experiment on NCI-H226 it was > 100 µM (inactive); in the experiment on Malme-3M, > 100 µM (inactive); in the experiment with HCT-15, 37.2 µM; in the experiment on TK-10, > 100 µM (inactive); in the experiment with OVCAR-5, > 100 µM (inactive). The figures for the GI50 in the experiment on M14, with A549 and with HOP-92 were > 100 µM (inactive), > 44.2 µM (inactive) and > 41.5 µM (inactive), respectively.
In the case of `Cc1ccc(S(=O)(=O)c2c(N)n(CCN(C)C)c3nc4ccccc4nc23)cc1`, the GI50 with COLO 205 was > 100 µM (inactive); in the experiment on K562, > 100 µM (inactive); with SK-MEL-5 it was > 100 µM (inactive); in the experiment with U-251 it was > 100 µM (inactive); in the experiment on OVCAR-8, > 100 µM (inactive); in the experiment with KM12, 45.1 µM (inactive). The GI50 was > 100 µM (inactive) in the experiment on SN12C; > 100 µM (inactive) with NCI-H226; > 100 µM (inactive) with Malme-3M; above 100 µM in the experiment with HCT-15; 99.8 µM (inactive) in the experiment with TK-10; > 100 µM (inactive) with OVCAR-5. Also, the GI50 in the experiment on M14, in the experiment on A549 and in the experiment on HOP-92 was > 100 µM (inactive) each time.
In the case of `OCC(O)C(OC1OC(CO)C(O)C(O)C1O)c1nn(-c2ccccc2)c2nc3cc(Cl)ccc3nc12` (stereo unspecified), the GI50 in the experiment on K562, in the experiment with U-251, with OVCAR-8, in the experiment with KM12, with SN12C and in the experiment on Malme-3M was > 100 µM (inactive) each time. The GI50 in the experiment with HCT-15 is above 100 µM; in the experiment on TK-10, > 100 µM (inactive); in the experiment with OVCAR-5, > 100 µM (inactive); with M14 it was > 100 µM (inactive).
As for `O=C(O)[C@@H](NS(=O)(=O)c1ccc2ccccc2c1)c1ccccc1`, the GI50 is > 100 µM (inactive) in the experiment on COLO 205; > 100 µM (inactive) with K562; > 100 µM (inactive) in the experiment with U-251; > 100 µM (inactive) in the experiment on SN12C; > 100 µM (inactive) in the experiment on Malme-3M; above 100 µM with HCT-15. The GI50 with OVCAR-5, with M14 and in the experiment on HOP-92 was > 100 µM (inactive) in each case.
For `COC(=O)C(CCC#N)(CCC#N)C(=O)OC`, the GI50 with COLO 205, in the experiment on K562, with SK-MEL-5, in the experiment with U-251, in the experiment on OVCAR-8 and in the experiment on KM12 was > 100 µM (inactive) each time. The GI50 is > 100 µM (inactive) in the experiment with SN12C; > 100 µM (inactive) in the experiment with NCI-H226; > 100 µM (inactive) in the experiment on Malme-3M; above 100 µM in the experiment on HCT-15; > 100 µM (inactive) with M14; > 100 µM (inactive) in the experiment on A549.
As for `COc1cc2c(c(OC)c1O)-c1ccc(SC)c(=O)cc1C(NC(C)=O)CC2` (stereo unspecified), the GI50 in the experiment on COLO 205 is < 0.01 µM (active); in the experiment on K562, < 0.01 µM (active); in the experiment on SK-MEL-5 it was < 0.01 µM (active); in the experiment on U-251, < 0.0146 µM (active); in the experiment with OVCAR-8, 0.0307 µM (active); with KM12, < 0.01 µM (active). The GI50 in the experiment with SN12C was 0.0518 µM (active); with NCI-H226, 0.532 µM (active); in the experiment with Malme-3M it was < 0.01 µM (active); with HCT-15, 1.06 µM; with TK-10, 2.29 µM (inactive); with OVCAR-5 it was 4.83 µM (inactive). For the same molecule, the GI50 in the experiment on M14 was 0.0249 µM (active); in the experiment with A549 it was 0.04 µM (active); in the experiment on HOP-92, 0.0124 µM (active).
Consider `O=C(CCN1CCC(CCO)CC1)Nc1ccc2c(c1)C(=O)c1ccc(NC(=O)CCN3CCC(CCO)CC3)cc1C2=O`, for which the GI50 with COLO 205 is 10.7 µM (inactive); in the experiment with K562 it was 8.05 µM (inactive); in the experiment with SK-MEL-5, 19.4 µM (inactive); with U-251, 9.1 µM (inactive); in the experiment on OVCAR-8 it was 9.89 µM (inactive); with KM12 it was 2.69 µM (inactive). Further, the GI50 in the experiment with SN12C was 16.5 µM (inactive); in the experiment on NCI-H226, 4.86 µM (inactive); in the experiment with Malme-3M, 11 µM (inactive); in the experiment with HCT-15 it was 27.7 µM; in the experiment with TK-10 it was 24.7 µM (inactive); with OVCAR-5 it was > 100 µM (inactive). Moreover, the results for the GI50 with A549 and in the experiment on HOP-92 were 37.7 µM (inactive) and 29.8 µM (inactive), respectively.
Turning to `CC(=O)O[C@H]1C(N(C)C(=O)c2ccccc2)CC[C@]2(C)C3CC[C@@]4(C)C(CC(O)[C@@H]4C(C)N(C)C)[C@@H]3CCC12` (stereo partly specified), the GI50 in the experiment with COLO 205, with K562, with SK-MEL-5, with U-251, with OVCAR-8 and in the experiment on KM12 was > 100 µM (inactive) throughout. Also, the GI50 in the experiment with SN12C is > 100 µM (inactive); with NCI-H226 it was > 100 µM (inactive); in the experiment with Malme-3M, > 100 µM (inactive); with HCT-15, above 100 µM; in the experiment on TK-10, > 100 µM (inactive); in the experiment on OVCAR-5 it was > 100 µM (inactive). Further, the GI50 in the experiment with M14, with A549 and with HOP-92 was > 100 µM (inactive) in each case.
For `O=c1oc(=O)c2oc3ccccc3oc1=2`, the GI50 with COLO 205, in the experiment on K562, with U-251, in the experiment with OVCAR-8, in the experiment with KM12 and in the experiment on SN12C was > 100 µM (inactive) in each case. Further, the GI50 with NCI-H226 was > 100 µM (inactive); in the experiment on Malme-3M, > 100 µM (inactive); with HCT-15, above 100 µM; in the experiment on TK-10, > 100 µM (inactive); in the experiment on OVCAR-5, > 100 µM (inactive); with M14, > 100 µM (inactive). In addition, the GI50 in the experiment with A549 and in the experiment with HOP-92 was > 100 µM (inactive) each time.
Consider `c1cnc2c(c1)-n1cccc1C1(CCCCC1)NN2`, for which the GI50 in the experiment on COLO 205 was > 100 µM (inactive); with K562, 45.1 µM (inactive); in the experiment with SK-MEL-5, 71.3 µM (inactive); in the experiment on OVCAR-8, > 100 µM (inactive); with KM12 it was 99.1 µM (inactive); in the experiment on SN12C, > 100 µM (inactive). Moreover, the GI50 with NCI-H226 is > 100 µM (inactive); with Malme-3M it was 62.1 µM (inactive); in the experiment on HCT-15 it was 37.4 µM; in the experiment on TK-10 it was 75.3 µM (inactive); in the experiment with OVCAR-5, > 100 µM (inactive); with M14, > 100 µM (inactive). In addition, the GI50 in the experiment on A549 is 54 µM (inactive).
Turning to `CN1C(=O)N(C)C2(O)c3ccccc3C(=O)C12O` (stereo unspecified), the GI50 with COLO 205, with K562, in the experiment with SK-MEL-5, with U-251, in the experiment on OVCAR-8 and in the experiment on KM12 was > 100 µM (inactive) in each case. Further, the GI50 with SN12C is > 100 µM (inactive); in the experiment on NCI-H226 it was > 100 µM (inactive); in the experiment on Malme-3M, > 100 µM (inactive); in the experiment on HCT-15, above 100 µM; with TK-10, > 100 µM (inactive); with OVCAR-5, > 100 µM (inactive). Besides, the GI50 with M14 and in the experiment on A549 was > 100 µM (inactive) in each case.
For the molecule `O=C1/C(=C(\Nc2ccccc2)c2ccccc2)C=NN1c1ccccc1`, the GI50 is > 100 µM (inactive) with COLO 205; 72.8 µM (inactive) with K562; 26.7 µM (inactive) in the experiment on SK-MEL-5; > 100 µM (inactive) in the experiment with U-251; > 100 µM (inactive) in the experiment with OVCAR-8; > 100 µM (inactive) in the experiment on KM12. Besides, the GI50 was > 100 µM (inactive) in the experiment with SN12C; 59 µM (inactive) with Malme-3M; above 100 µM in the experiment on HCT-15; > 100 µM (inactive) in the experiment with TK-10; > 100 µM (inactive) with OVCAR-5; > 100 µM (inactive) in the experiment with M14. In addition, the GI50 with A549 was > 100 µM (inactive).
Regarding `Nc1c(-c2ccc(Cl)cc2Cl)[n+]([O-])c2ccccc2[n+]1[O-]`, the GI50 in the experiment on COLO 205, in the experiment on K562, in the experiment on SK-MEL-5, in the experiment with U-251, in the experiment with OVCAR-8 and with KM12 was > 100 µM (inactive) in each case. The GI50 in the experiment on SN12C is > 100 µM (inactive); in the experiment with NCI-H226, > 100 µM (inactive); in the experiment on Malme-3M it was > 100 µM (inactive); in the experiment with HCT-15, above 100 µM; with TK-10 it was > 100 µM (inactive); in the experiment with OVCAR-5 it was > 100 µM (inactive). For the same molecule, the GI50 with M14 and in the experiment with A549 was > 100 µM (inactive) throughout.
As for `CC(=O)Nc1ccc(/C=C/C(=O)c2sc(C(N)=S)nc2C)cc1`, the GI50 in the experiment with COLO 205, in the experiment on K562, in the experiment with SK-MEL-5, with U-251, in the experiment with OVCAR-8 and in the experiment on KM12 was > 100 µM (inactive) throughout. The GI50 in the experiment on SN12C was > 100 µM (inactive); in the experiment with NCI-H226, > 100 µM (inactive); in the experiment with Malme-3M it was > 100 µM (inactive); in the experiment on HCT-15, above 100 µM; in the experiment with TK-10 it was > 100 µM (inactive); in the experiment on OVCAR-5 it was > 100 µM (inactive). The GI50 with A549 and in the experiment with HOP-92 was > 100 µM (inactive) throughout.
